The record followed here is PubChem BioAssay (NCI).

Each structure is given as a SMILES string. Values joined by “and” are separate entries in the source; they are usually repeats but may differ in a detail not shown here. Equal entries are not always repeated.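 Compound exposure: 48 hours, 5 concentrations, 96-well plates. GI50 marks 50% less growth. The concentration for full growth arrest is given as TGI.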 Bounds are passed on as bounds.

Holding throughout (experiment): NCI-60 cell line screen, 48 h
The test system of test [1] is DLD-1 colon.
For test [2], the system named is DMS 114 small cell lung.
In test [3] the test system is DMS 273 small cell lung.
Test [4] concerns HOP-18 NSCLC.
Test [5] relates to LXFL 529 NSCLC.
The test system of test [6] is MDA-N.
Test [7] deals with RXF-631 renal.
Test [8] concerns SNB-78 CNS.
In test [9] the test system is XF 498 CNS.

Turning to `OCC(O)C(O)C(O)C1SC(c2ccccc2)=NN1c1ccccc1` (stereo not given), the TGI in [1], in [2], in test [3], in test [4], in test [5] and in [6] was more than 100 µM each time. For the same compound, the figures for the TGI in test [7], in [8] and in [9] were more than 100 µM, more than 96.4 µM and more than 78.1 µM, respectively.
In turn, `COc1ccccc1C1=C2C(=O)N(C)C(c3ccccc3OC)=C2C(=O)N1C` displayed a TGI in test [6] of more than 100 µM.
In [6], `C=C(Cl)COC(=O)Nc1cccc(Cl)c1` came in with a TGI of more than 100 µM.
As for `COC1/C=C\C=C(/C)C(=O)Nc2cc3nc4ccc(Br)cc4oc-3c(c2=O)CC(C)CC(OC)C(O)C(C)/C=C(\C)C1OC(N)=O` (stereo not given), the TGI in test [1] amounted to 8.29 µM; in test [2] it was 5.34 µM; in test [3] it was 4.19 µM; in test [4], 17.3 µM; in [5] it was 9.42 µM; in test [6], 1.27 µM. Besides, the TGI in test [8] was 30 µM; in test [9], 0.466 µM. The GI50 in test [6] is 0.0124 µM.
In the case of `N#CCc1ccc(C(C#N)/C(CCCC(=O)Nc2cccc([N+](=O)[O-])c2)=N\NC(=O)NN)cc1` (stereo not given), the TGI in test [1], in test [2], in test [3], in [4], in [5] and in [8] was more than 100 µM each time.
For the compound `C1CNCCNCCNCCN1`, the TGI in test [1], in test [2], in test [3], in test [4], in test [5] and in test [8] was more than 100 µM throughout.
In test [6], `C[C@]12CC[C@H](O)CC1=CC[C@@H]1C2CC[C@]2(C)c3nn(-c4ccc(F)cc4)nc3CC12` (stereo not given in full) returned a TGI of more than 100 µM.
With `O=C1/C(=C/c2ccc(O)c([N+](=O)[O-])c2)CCC/C1=C\c1ccc(O)c([N+](=O)[O-])c1`, in test [6], the GI50 is 25.9 µM; the TGI is 19.9 µM and > 100 µM.
Turning to `O=C1CCCCCCCCCCC(=O)C2CCOCCOCCOCCC1Cc1cccc(n1)C2`, the TGI in [1], in [2], in test [3], in [5], in [7] and in test [8] was more than 100 µM each time. The TGI in [9] is more than 100 µM.
On to `CC(=O)NC1=C(Nc2ccc(C)cc2)C(=O)c2ccccc2C1=O`, for which the TGI was more than 75 µM in test [1]; 38.4 µM in test [2]; 61 µM in [3]; 28.5 µM in [4]; more than 75 µM in test [5]; more than 75 µM in test [8]. This compound registered a TGI in test [9] of 73.1 µM.
Take `COC(=O)/C=C(C)/C=C/c1cc(C(C)=O)c(C)o1`: the TGI in test [1], in test [2], in [4], in [5], in test [8] and in [9] was more than 100 µM in each case.
Consider `C=CC[C@H]1C[C@@]2(C)OC[C@H](C(C)C)N2C1=O`, for which the TGI in test [3], in test [4], in test [8] and in [9] was more than 100 µM in each case.
Regarding `O=[N+]([O-])c1ccc(Sc2c3ccccc3nc3ccccc23)cc1`, the TGI in test [1], in test [4], in [5], in [7], in test [8] and in test [9] was more than 100 µM in each case.
With `NCCCN(CCCN)CCCNCc1c2ccccc2c(CNCCCN(CCCN)CCCN)c2ccccc12`, the TGI in [1] amounted to 28.8 µM; in [3], 17 µM; in [4], 20.7 µM; in test [5], 22.6 µM; in [7], 43.7 µM; in [8], 79.9 µM. Moreover, the TGI in test [9] came to 38.1 µM.
Consider `S=c1[nH]c(=S)c2sc(=S)n(-c3ccccc3)c2[nH]1`, for which the TGI in [1], in [2], in test [3], in test [4], in test [5] and in [8] was more than 100 µM each time. This compound also showed a TGI in test [9] of more than 100 µM.
As for `CC1Cc2c(N)nc(NN)nc2NC1=O` (stereo not given), the TGI in test [1], in test [2], in test [3], in [4] and in [9] was more than 100 µM each time.
Compound `O=C(/C=C/C=C/c1ccccc1)CCc1ccccc1` displayed a TGI in test [6] of more than 100 µM.
Same read-out and setting: the result for `Cc1ccccc1C(=O)C#Cc1cn(C2CC(O)C(CO)O2)c(=O)[nH]c1=O` (stereo not given) reads more than 100 µM.
Take `CCOc1cc2c(cnc3c4cc(OC)c(OC)cc4ccc23)cc1OC`: the TGI in test [1], in test [2], in [5] and in test [9] was more than 100 µM in each case.
